# In patent US20240381872A1, “SUBSTITUTED 2,3-DIHYDRO[1,3]THIAZOLO[4,5-B]PYRIDINES, SALTS THEREOF AND THEIR USE AS HERBICIDALLY ACTIVE SUBSTANCES” (BAYER AKTIENGESELLSCHAFT, priority 2021, published 2024):
# Assays:
# Type in all cases: in vivo
# [1] = system: Abutilon theophrasti (ABUTH); assay: Herbicidal pre-emergence action, section A (Table A1); settings: visual grading after ca. 3 weeks vs untreated controls; for pre-emergence activity against ABUTH in % / pest or weed control at 1280 g/ha: application rate 1280 g/ha
# Source text: Seeds of mono- and dicotyledonous weed plants were sown in plastic pots (double sowings with one species of mono- and one species of dicotyledonous weed plants per pot), in sandy loam, and covered with soil. The compounds according to the invention, formulated in the form of wettable powders (WP) or as emulsifiable concentrates (EC), were applied to the surface of the covering soil as aqueous suspension or emulsion, with the addition of 0.5% of an additive, at an application rate of 600 l of water per hectare (converted). Following treatment, the pots were placed in a greenhouse and kept under optimum growth conditions for the test plants. The visual grading of the damage to the test plants was carried out after ca. 3 weeks in comparison to untreated controls (herbicidal effect in percent (%): 100% effect=plants have died off, 0% effect=as control plants).
# [2] = system: Matricaria inodora (MATIN); assay: Herbicidal pre-emergence action, section A (Table A6); settings: visual grading after ca. 3 weeks vs untreated controls
# In short: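 Read-out is visual herbicidal effect in percent (100% = plants died, 0% = as control), graded ca. 3 weeks after treatment. Test compounds as WP or EC were applied to covering soil over sown seeds with 0.5% additive, 600 l water per hectare; greenhouse growth.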
# Veronica persica (VERPE) = assay: Herbicidal post-emergence action, section B (Table B10); settings: visual rating about 3 weeks after treatment vs untreated controls; for pest or weed control at 320 g/ha: Veronica persica, post-emergence, 504 h, read-out: post-emergence activity against VERPE in %
# In short: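 Under optimum greenhouse conditions, sandy-loam-grown weeds at the one-leaf stage are sprayed with aqueous suspension or emulsion carrying 0.5% additive, 600 liters per hectare. About 3 weeks later, visual percent activity is scored relative to untreated controls.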
# [3] = system: Alopecurus myosuroides (ALOMY); assay: Herbicidal post-emergence action, section E (Table E2); settings: application rate 320 g/ha, assessed visually after ca. 3 weeks; for pest or weed control at 320 g/ha: Alopecurus myosuroides, post-emergence, 504 h, read-out: post-emergence activity against ALOMY in %
# Source text: (§1) Seeds of mono- and dicotyledonous weed plants and crop plants were sown, in plastic or organic planting pots, in sandy loam, covered with soil and grown in a greenhouse under controlled growth conditions. 2 to 3 weeks after sowing, the test plants were sprayed in the single-leaf stage. The compounds according to the invention, formulated in form of wettable powders (WP) or as emulsifiable concentrates (EC), were sprayed onto the green plant parts as aqueous suspension or emulsion, with the addition of 0.5% of an additive, at an application rate of 600 l of water/ha (converted). The test plants were placed in the greenhouse for ca. 3 weeks under optimum growth conditions, and then the effect of the preparations was assessed visually in comparison with untreated controls (herbicidal effect in percent (%): 100% effect=plants have died off, 0% effect=as control plants).
# Glycine max (GLXMA) = assay: Post-emergence effects on crop plants, section F (Table F4); settings: for post-emergence activity against GLXMA in %: crop plant damage; for post-emergence activity against GLXMA in % / percent crop plant damage at 80 g/ha: application rate 80 g/ha; for percent crop plant damage at 80 g/ha / percent crop plant damage at 320 g/ha: Glycine max, 504 h, read-out: post-emergence activity against GLXMA in %; for percent crop plant damage at 320 g/ha: application rate 320 g/ha
# In short: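 Crops grown in sandy loam in the greenhouse were sprayed post-emergence at the single-leaf stage, 2-3 weeks after sowing. Compounds were formulated as WP or EC with 0.5% additive and applied in 600 l water/ha at 320 g/ha or below. Damage was scored visually about 3 weeks later as % effect versus untreated controls (100% = dead).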
# Zea mays (ZEAMX) = assay: Pre-emergence effects on crop plants, section D (Table D1); settings: visual grading after ca. 3 weeks
# In short: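 Formulated compound (wettable powder or emulsifiable concentrate) was applied pre-emergence to the soil surface at 320 g/ha or lower. Greenhouse-grown plants were rated visually for percent damage after ca. 3 weeks.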
# [4] = system: Polygonum convolvulus (POLCO); assay: Herbicidal pre-emergence action, section C (Table C7); settings: visual grading after ca. 3 weeks; for pest or weed control at 80 g/ha / pest or weed control at 320 g/ha: Fallopia convolvulus, pre-emergence, 504 h, read-out: pre-emergence activity against POLCO in %
# Source text: Seeds of mono- and dicotyledonous weed plants and crop plants were sown, in plastic or organic planting pots, in sandy loam and covered with soil. The compounds according to the invention, formulated in the form of wettable powders (WP) or as emulsifiable concentrates (EC), were applied to the surface of the covering soil as aqueous suspension or emulsion, with the addition of 0.5% of an additive, at an application rate of 600 l of water/ha (converted). Following treatment, the pots were placed in a greenhouse and kept under optimum growth conditions for the test plants. The visual grading of the damage to the test plants was carried out after ca. 3 weeks in comparison to untreated controls (herbicidal effect in percent (%): 100% effect=plants have died off, 0% effect=as control plants).
# [5] = system: Amaranthus retroflexus (AMARE); assay: Herbicidal post-emergence action, section E (Table E3); settings: application rate 320 g/ha, assessed visually after ca. 3 weeks; for pest or weed control at 320 g/ha: Amaranthus retroflexus, post-emergence, 504 h, read-out: post-emergence activity against AMARE in %
# Source text: as §1
# [6] = Abutilon theophrasti, pre-emergence, 504 h, read-out: pre-emergence activity against ABUTH in %
# [7] = Tripleurospermum inodorum, pre-emergence, 504 h, application rate 1280 g/ha, read-out: pre-emergence activity against MATIN in %
compound,measurement,setting,value
COC(=O)CCC(=O)N1CSc2cc(Cl)c(-c3ccccc3F)nc21 [Example I-003],pre-emergence activity against ABUTH in %,[1],90%
same,pre-emergence activity against MATIN in %,[2]; application rate 320 g/ha,90%
same,post-emergence activity against VERPE in %,Veronica persica (VERPE); application rate 320 g/ha,100%
same,post-emergence activity against ALOMY in %,[3],80%
same,post-emergence activity against GLXMA in %,Glycine max (GLXMA),0%
BN1CSc2cc(Br)c(-c3ccccc3C)nc21 [Example I-011],post-emergence activity against VERPE in %,Veronica persica (VERPE); application rate 1280 g/ha,90%
same,pre-emergence activity against ZEAMX in % (crop plant damage),Zea mays (ZEAMX); application rate 320 g/ha,10%
"Clc1ccccc1-c1nc2c(cc1Br)SCN2 [Example I-041, 6-bromo-5-(2-chlorophenyl)-2,3-dihydro[1,3]thiazolo[4,5-b]pyridine]",pest or weed control at 1280 g/ha,[1]; [6],90%
same,pest or weed control at 1280 g/ha,[2]; [7],90%
same,pest or weed control at 320 g/ha,Veronica persica (VERPE); application rate 320 g/ha,90%
same,pest or weed control at 80 g/ha,[4]; application rate 80 g/ha,80%
same,pre-emergence activity against ZEAMX in % (crop plant damage),Zea mays (ZEAMX); application rate 80 g/ha,0%
same,percent crop plant damage at 80 g/ha,Glycine max (GLXMA),0%
CCc1ccccc1-c1nc2c(cc1C)[S+]([O-])CN2 (stereo not drawn) [Example I-047],pest or weed control at 1280 g/ha,[2]; [7],90%
same,pest or weed control at 320 g/ha,Veronica persica (VERPE); application rate 320 g/ha,90%
same,pest or weed control at 320 g/ha,[4]; application rate 320 g/ha,80%
same,pre-emergence activity against ZEAMX in % (crop plant damage),Zea mays (ZEAMX); application rate 320 g/ha,20%
same,percent crop plant damage at 80 g/ha,Glycine max (GLXMA),0%
"Cc1cc2c(nc1-c1ccccc1Cl)NCS2 [Example I-049, 5-(2-chlorophenyl)-6-methyl-2,3-dihydro[1,3]thiazolo[4,5-b]pyridine]",pest or weed control at 320 g/ha,[4]; application rate 320 g/ha,80%
same,pre-emergence activity against ZEAMX in % (crop plant damage),Zea mays (ZEAMX); application rate 80 g/ha,10%
same,pest or weed control at 320 g/ha,[3],80%
same,pest or weed control at 320 g/ha,[5],90%
"CC(=O)N1CSc2cc(Br)c(-c3ccccc3Cl)nc21 [Example I-055, 1-[6-bromo-5-(2-chlorophenyl)[1,3]thiazolo[4,5-b]pyridin-3(2H)-yl]ethanone]",pest or weed control at 1280 g/ha,[1]; [6],90%
same,pest or weed control at 1280 g/ha,[2]; [7],90%
same,pest or weed control at 320 g/ha,[4]; application rate 320 g/ha,80%
same,pre-emergence activity against ZEAMX in % (crop plant damage),Zea mays (ZEAMX); application rate 320 g/ha,0%
same,pest or weed control at 320 g/ha,[5],80%
same,percent crop plant damage at 320 g/ha,Glycine max (GLXMA),20%
CC(C)C(=O)N1C[S+]([O-])c2cc(Br)c(-c3ccccc3)nc21 (stereo not drawn) [Example I-067],pest or weed control at 80 g/ha,[4]; application rate 80 g/ha,90%
same,pre-emergence activity against ZEAMX in % (crop plant damage),Zea mays (ZEAMX); application rate 320 g/ha,20%
same,pest or weed control at 320 g/ha,[5],80%
same,percent crop plant damage at 320 g/ha,Glycine max (GLXMA),10%
CCS(=O)(=O)N1C[S+]([O-])c2cc(C)c(-c3ccccc3C)nc21 (stereo not drawn) [Example I-074],pest or weed control at 1280 g/ha,[1]; [6],90%
same,pest or weed control at 320 g/ha,"[2]; Tripleurospermum inodorum, pre-emergence, 504 h, application rate 320 g/ha, read-out: pre-emergence activity against MATIN in %",90%
same,pest or weed control at 320 g/ha,Veronica persica (VERPE); application rate 320 g/ha,90%
same,pest or weed control at 320 g/ha,[4]; application rate 320 g/ha,90%
same,pre-emergence activity against ZEAMX in % (crop plant damage),Zea mays (ZEAMX); application rate 80 g/ha,0%
same,pest or weed control at 320 g/ha,[3],90%
same,percent crop plant damage at 80 g/ha,Glycine max (GLXMA),0%
Cc1cc2c(nc1-c1ccccc1F)N(C(=O)C1(C)CC(Cl)=NO1)CS2 (stereo not drawn) [Example I-083],pre-emergence activity against MATIN in %,[2]; application rate 1280 g/ha,90%
same,post-emergence activity against VERPE in %,Veronica persica (VERPE); application rate 320 g/ha,90%
same,pre-emergence activity against POLCO in %,[4]; application rate 320 g/ha,90%
same,pre-emergence activity against ZEAMX in % (crop plant damage),Zea mays (ZEAMX); application rate 80 g/ha,10%
same,post-emergence activity against ALOMY in %,[3],90%
same,post-emergence activity against AMARE in %,[5],80%
Cc1cc2c(nc1-c1ccccc1)N(C(=O)C1(C)CC(Cl)=NO1)CS2 (stereo not drawn) [Example I-088],pre-emergence activity against MATIN in %,[2]; application rate 1280 g/ha,90%
same,post-emergence activity against VERPE in %,Veronica persica (VERPE); application rate 1280 g/ha,90%
same,pre-emergence activity against POLCO in %,[4]; application rate 320 g/ha,90%
same,pre-emergence activity against ZEAMX in % (crop plant damage),Zea mays (ZEAMX); application rate 320 g/ha,0%
same,post-emergence activity against GLXMA in %,Glycine max (GLXMA),0%
Cc1cc2c(nc1-c1ccccc1F)N(C(=O)C13CCCC1C(Cl)=NO3)CS2 (stereo not drawn) [Example I-104],pre-emergence activity against ABUTH in %,[1],90%
same,pre-emergence activity against MATIN in %,[2]; application rate 320 g/ha,100%
same,post-emergence activity against VERPE in %,Veronica persica (VERPE); application rate 320 g/ha,90%
same,pre-emergence activity against POLCO in %,[4]; application rate 80 g/ha,80%
same,pre-emergence activity against ZEAMX in % (crop plant damage),Zea mays (ZEAMX); application rate 80 g/ha,0) %
same,post-emergence activity against ALOMY in %,[3],80%
Cc1cc2c(nc1-c1cccc(C)c1F)NCS2 [Example I-113],pre-emergence activity against POLCO in %,[4]; application rate 80 g/ha,90%
same,pre-emergence activity against ZEAMX in % (crop plant damage),Zea mays (ZEAMX); application rate 320 g/ha,0%
same,post-emergence activity against GLXMA in %,Glycine max (GLXMA),0%
Cc1cc2c(nc1-c1ccccc1F)N(S(=O)(=O)Cc1ccc(F)cc1)CS2 [Example I-122],pre-emergence activity against ABUTH in %,[1],90%
same,pre-emergence activity against MATIN in %,[2]; application rate 320 g/ha,90%
same,post-emergence activity against VERPE in %,Veronica persica (VERPE); application rate 320 g/ha,90%
same,pre-emergence activity against POLCO in %,[4]; application rate 80 g/ha,80%
same,pre-emergence activity against ZEAMX in % (crop plant damage),Zea mays (ZEAMX); application rate 320 g/ha,0%
same,post-emergence activity against ALOMY in %,[3],90%
same,post-emergence activity against GLXMA in %,Glycine max (GLXMA),10%
"CC1(C(=O)N2CSc3cc(Br)c(-c4ccccc4Cl)nc32)CC(Cl)=NO1 (stereo not drawn) [Example I-141, [6-bromo-5-(2-chlorophenyl)[1,3]thiazolo[4,5-b]pyridin-3(2H)-yl](3-chloro-5-methyl-4,5-dihydro-1,2-oxazol-5-yl)methanone]",pest or weed control at 320 g/ha,"[1]; Abutilon theophrasti, pre-emergence, 504 h, application rate 320 g/ha, read-out: pre-emergence activity against ABUTH in %",100%
same,pest or weed control at 1280 g/ha,[2]; [7],90%
same,pest or weed control at 320 g/ha,[4]; application rate 320 g/ha,80%
same,pre-emergence activity against ZEAMX in % (crop plant damage),Zea mays (ZEAMX); application rate 80 g/ha,0%
same,pest or weed control at 320 g/ha,[5],80%
same,percent crop plant damage at 80 g/ha,Glycine max (GLXMA),20%
